The NIST ThermoML archive (doi:10.1016/j.jct.2009.06.016)
Values joined by “and” are separate entries in the source; they are usually repeats but may differ in a detail not shown here. Identical values can stand only once.

Experiment: xn = mol fraction of the nth substance listed
Conditions: 101 kPa, Liquid, Vibrating tube method

CCCOCC(C)O (configuration not stated) [1-propoxy-2-propanol] + O
mass density
Conditions	283.15 K	288.15 K
x1 = 0.001639	999.31 kg/m3	998.703 kg/m3
x1 = 0.003265	999.009 kg/m3	998.36 kg/m3
x1 = 0.01049	998.189 kg/m3	997.309 kg/m3
x1 = 0.01741	997.871 kg/m3	996.708 kg/m3
x1 = 0.02413	997.617 kg/m3	996.172 kg/m3
x1 = 0.02492	997.584 kg/m3	996.099 kg/m3
x1 = 0.03341	997.009 kg/m3	994.916 kg/m3
x1 = 0.0411	995.626 kg/m3	993.032 kg/m3
x1 = 0.04904	993.374 kg/m3	990.531 kg/m3
x1 = 0.05896	990.231 kg/m3	987.111 kg/m3
x1 = 0.06919	987.019 kg/m3	983.629 kg/m3
x1 = 0.07722	984.1 kg/m3	980.908 kg/m3
x1 = 0.08896	980.8 kg/m3	977.203 kg/m3
x1 = 0.09833	977.885 kg/m3	974.328 kg/m3
x1 = 0.1083	975.142 kg/m3	971.439 kg/m3
x1 = 0.1182	972.498 kg/m3	968.762 kg/m3
x1 = 0.1249	970.842 kg/m3	967.03 kg/m3
x1 = 0.1283	969.927 kg/m3	–
x1 = 0.1365	967.946 kg/m3	–
x1 = 0.1475	965.216 kg/m3	–
x1 = 0.1677	961.137 kg/m3	–
x1 = 0.1955	955.28 kg/m3	–
x1 = 0.2281	950.34 kg/m3	–
x1 = 0.2743	943.61 kg/m3	–
x1 = 0.3208	937.609 kg/m3	–
x1 = 0.3483	934.321 kg/m3	–
x1 = 0.3738	931.91 kg/m3	–
x1 = 0.4214	927.214 kg/m3	–
x1 = 0.4787	922.45 kg/m3	–
x1 = 0.5257	918.715 kg/m3	–
x1 = 0.548	916.854 kg/m3	–
x1 = 0.5771	915.29 kg/m3	–
x1 = 0.5977	913.887 kg/m3	–
x1 = 0.6247	912.186 kg/m3	–
x1 = 0.6385	911.37 kg/m3	–
x1 = 0.672	909.401 kg/m3	–
x1 = 0.6793	909.018 kg/m3	–
x1 = 0.7192	906.894 kg/m3	–
x1 = 0.7272	906.317 kg/m3	–
x1 = 0.7448	905.495 kg/m3	–
x1 = 0.7589	904.809 kg/m3	–
x1 = 0.7682	903.977 kg/m3	–
x1 = 0.7858	903.51 kg/m3	–
x1 = 0.7981	902.909 kg/m3	–
x1 = 0.8224	901.51 kg/m3	–
x1 = 0.8398	901.029 kg/m3	–
x1 = 0.8588	900.07 kg/m3	–
x1 = 0.8792	898.865 kg/m3	–
x1 = 0.8796	899.334 kg/m3	–
x1 = 0.8993	898.371 kg/m3	–
x1 = 0.9197	897.715 kg/m3 and 897.195 kg/m3	–
x1 = 0.9388	896.775 kg/m3	–
x1 = 0.9486	896.411 kg/m3	–
x1 = 0.9609	895.933 kg/m3	–
x1 = 0.9628	896.008 kg/m3	–
x1 = 0.9716	895.539 kg/m3	–
x1 = 0.9798	895.261 kg/m3	–
x1 = 0.9818	895.15 kg/m3	–
x1 = 0.9919	894.781 kg/m3	–
x1 = 1	894.462 kg/m3	–
